Molecules are shown by their SMILES.

One series is described as follows: solvent given as SMILES. Conditions: in C1CCCCC1.
`CC(C)[Si]1(C(C)C)c2cc(C=C(C#N)C#N)ccc2-c2ccc(N(C)C)cc21` registered an emission maximum of 509 nm.
For the molecule `C(#Cc1ncnc2ccccc12)c1ccc(N(c2ccccc2)c2ccccc2)cc1`, the emission maximum is recorded as 433 nm.
On the same count and under the same terms, in the case of `CN(C)c1ccc(-c2ccc(-c3cc(N4CCCCC4)c(C#N)c4c3-c3ccccc3CC4)s2)cc1` it was 491 nm.
The same measure, in the same setting: with `COc1ccc2c3c(cccc13)C(=O)N(C)C2=O` the figure was 404 nm.

Still in this series, the particulars now being: in C1CCOC1.
`C(#Cc1ncnc2ccccc12)c1ccc(N(c2ccccc2)c2ccccc2)cc1`: the emission maximum is given as 535 nm.
Turning to `c1ccc(-c2nc(-c3ccc(-c4ccc(N(c5ccccc5)c5ccccc5)cc4)cn3)oc2-c2ccccc2)cc1`, the emission maximum came out at 458 nm.
Still for that read-out and setting: in the case of `CN(C)c1ccc(-c2ccc(-c3cc(N4CCCCC4)c(C#N)c4c3-c3ccccc3CC4)s2)cc1` it was 537 nm; in that of `CCOC(=O)c1sc(SC)c2c(=O)n(C)nnc12`, 470 nm; in that of `N#C/C(=C\c1ccc(C=C(c2ccccc2)c2ccccc2)cc1)c1ccc([N+](=O)[O-])cc1`, 552 nm.
On the same count and under the same terms, in the case of `C1=Cc2ccccc2C(=Cc2ccc(C=C3c4ccccc4C=Cc4ccccc43)cc2)c2ccccc21` it was 405 nm; in that of `N#Cc1cc2ccccc2oc1=N`, 409 nm.
`Cc1ccc(C(=O)/C=C/c2ccc(N(C)C)cc2)cc1` gave an emission maximum of 503 nm.
On the same count and under the same terms, in the case of `N#Cc1cc2ccc(O)cc2oc1=N` it was 412 nm.
Molecule `F[B-]1(F)n2c(c3cccc4cccc2c43)=Nc2sc3ccccc3[n+]21` showed an emission maximum of 501 nm.
As to `CC(=O)Nc1ccc(S(=O)(=O)O)c(/N=N/c2c(O)c3ccccc3n(C)c2=O)c1`, the emission maximum was determined as 523 nm.
Turning to `COc1ccc2c3c(cccc13)C(=O)N(C)C2=O`, the emission maximum is 430 nm.

The series is the same for the next values; noted with them: in C1COCCO1.
Molecule `c1ccc(-c2nc(-c3ccc(-c4ccc(N(c5ccccc5)c5ccccc5)cc4)cn3)oc2-c2ccccc2)cc1` yielded an emission maximum of 454 nm.

Still in this series, the particulars now being: in CC#N.
`CC(C)[Si]1(C(C)C)c2cc(C=C(C#N)C#N)ccc2-c2ccc(N(C)C)cc21` came in with an emission maximum of 694 nm.
For the molecule `C(#Cc1ncnc2ccccc12)c1ccc(N(c2ccccc2)c2ccccc2)cc1`, the emission maximum is reported as 610 nm.
The same measure, in the same setting: with `CCN(CC)c1ccc(/N=N/c2nc3ccc(OC)cc3s2)cc1` the figure was 583 nm.
Still for that read-out and setting: with `c1ccc(-c2nc(-c3ccc(-c4ccc(N(c5ccccc5)c5ccccc5)cc4)cn3)oc2-c2ccccc2)cc1` the figure was 507 nm.
`CCOC(=O)c1sc(SC)c2c(=O)n(C)nnc12` had an emission maximum of 484 nm.
Still for that read-out and setting: with `Cc1ccc(S(=O)(=O)Nc2c(/C=C/c3ccccc3)sc(-c3ccc(N(C)C)s3)c2-c2cccnc2)cc1` the figure was 610 nm; with `N#Cc1cc2ccccc2oc1=N`, 407 nm; with `Cc1ccc(C(=O)/C=C/c2ccc(N(C)C)cc2)cc1`, 529 nm.
Still for that read-out and setting: in the case of `N#Cc1cc2ccc(O)cc2oc1=N` it was 408 nm; in that of `F[B-]1(F)n2c(c3cccc4cccc2c43)=Nc2sc3ccccc3[n+]21`, 500 nm; in that of `CCOC(=O)c1c2c3c(ccc(F)c3c3cc4c(cc13)[Si](C)(C)O[Si]4(C)C)N(C)C2=O`, 411 nm.
For the molecule `COc1ccc2c3c(cccc13)C(=O)N(C)C2=O`, the emission maximum amounted to 434 nm.

The same series, now with this note: in CC(=O)O.
In turn, `Cc1ccc(C(=O)/C=C/c2ccc(N(C)C)cc2)cc1` gave an emission maximum of 512 nm.

The same series, now with this note: in CC(C)=O.
The molecule `c1ccc(-c2nc(-c3ccc(-c4ccc(N(c5ccccc5)c5ccccc5)cc4)cn3)oc2-c2ccccc2)cc1` came in with an emission maximum of 495 nm.
Still for that read-out and setting: in the case of `Cc1ccc(C(=O)/C=C/c2ccc(N(C)C)cc2)cc1` it was 516 nm; in that of `CC(=O)Nc1ccc(S(=O)(=O)O)c(/N=N/c2c(O)c3ccccc3n(C)c2=O)c1`, 516 nm.

The same series, now with this note: in CC(C)CC(C)(C)C.
`COc1ccc2c3c(cccc13)C(=O)N(C)C2=O`: the emission maximum came out at 402 nm.

Still in this series, the particulars now being: in CC(C)OC(C)C.
Molecule `c1ccc(-c2nc(-c3ccc(-c4ccc(N(c5ccccc5)c5ccccc5)cc4)cn3)oc2-c2ccccc2)cc1` displayed an emission maximum of 434 nm.

Still in this series, the particulars now being: in CCCCCC.
For the molecule `CCCCCCC(CCCCCC)N1C(=O)c2cccc3c(-c4ccc(-c5ccc(OC)cc5)cc4)ccc(c23)C1=O`, the emission maximum was 426.8 nm.
The same measure, in the same setting: in the case of `c1ccc(-c2nc(-c3ccc(-c4ccc(N(c5ccccc5)c5ccccc5)cc4)cn3)oc2-c2ccccc2)cc1` it was 399 nm; in that of `F[B-]1(F)n2c(c3cccc4cccc2c43)=Nc2sc3ccccc3[n+]21`, 493 nm.
As to `CC(C)(C)c1ccc2c(c1)c1cc3c4cc(C(C)(C)C)ccc4c4c5c6ccc(C(C)(C)C)cc6c6cc7c8cc(C(C)(C)C)ccc8c8c2c1c(c34)c(c78)c65`, the emission maximum was 679.35 nm.

Staying with this series, now noted: in CCCCCCCCCCCC
`COc1ccc2c3c(cccc13)C(=O)N(C)C2=O` returned an emission maximum of 402 nm.

The series is the same for the next values; noted with them: in CCCCCCCCCCCCCC
As for `CCCCCCC(CCCCCC)N1C(=O)c2cccc3c(-c4ccc(-c5ccc(OC)cc5)cc4)ccc(c23)C1=O`, the emission maximum was 436.7 nm.

The series is the same for the next values; noted with them: in CCCCCCCCCCCO
In turn, `CCCCCCC(CCCCCC)N1C(=O)c2cccc3c(-c4ccc(-c5ccc(OC)cc5)cc4)ccc(c23)C1=O` came in with an emission maximum of 518.2 nm.

The series is the same for the next values; noted with them: in CCCCO.
In turn, `CCCCCCC(CCCCCC)N1C(=O)c2cccc3c(-c4ccc(-c5ccc(OC)cc5)cc4)ccc(c23)C1=O` registered an emission maximum of 556.6 nm.

The same series, now with this note: in CCCCOCCCC
Consider `c1ccc(-c2nc(-c3ccc(-c4ccc(N(c5ccccc5)c5ccccc5)cc4)cn3)oc2-c2ccccc2)cc1`, for which the emission maximum came to 431 nm.

Still in this series, the particulars now being: in CCN(CC)CC.
`c1ccc(-c2nc(-c3ccc(-c4ccc(N(c5ccccc5)c5ccccc5)cc4)cn3)oc2-c2ccccc2)cc1` had an emission maximum of 422 nm.

The series is the same for the next values; noted with them: in CCO.
Consider `CC(C)[Si]1(C(C)C)c2cc(C=C(C#N)C#N)ccc2-c2ccc(N(C)C)cc21`, for which the emission maximum stood at 691 nm.
The same measure, in the same setting: with `O=Cc1cnc(-c2c3ccccc3cc3ccccc23)nc1` the figure was 438 nm; with `Cc1cc(-c2nnc(-c3c(C(C)C)cc(C(C)C)cc3C(C)C)o2)ccc1-n1c2ccccc2c2ccccc21`, 440 nm.
`CCOC(=O)c1sc(SC)c2c(=O)n(C)nnc12` had an emission maximum of 501 nm.
The molecule `Cc1ccc(C(=O)/C=C/c2ccc(N(C)C)cc2)cc1` gave an emission maximum of 533 nm.
In the case of `C#Cc1ccc2ccc3oc(=O)cc(C)c3c2c1`, the emission maximum is recorded as 403 nm.
On to `COc1ccc2c3c(cccc13)C(=O)N(C)C2=O`, for which the emission maximum is listed as 444 nm.

The same series, now with this note: in CCOC(C)=O.
As to `c1ccc(-c2nc(-c3ccc(-c4ccc(N(c5ccccc5)c5ccccc5)cc4)cn3)oc2-c2ccccc2)cc1`, the emission maximum is recorded as 456 nm.
In turn, `N#Cc1cc2ccccc2oc1=N` came in with an emission maximum of 410 nm.
Still for that read-out and setting: with `N#Cc1cc2ccc(O)cc2oc1=N` the figure was 414 nm; with `CC(=O)Nc1ccc(S(=O)(=O)O)c(/N=N/c2c(O)c3ccccc3n(C)c2=O)c1`, 523 nm.

Still in this series, the particulars now being: in CCOCC.
`CC(C)[Si]1(C(C)C)c2cc(C=C(C#N)C#N)ccc2-c2ccc(N(C)C)cc21` gave an emission maximum of 584 nm.
The molecule `c1ccc(-c2nc(-c3ccc(-c4ccc(N(c5ccccc5)c5ccccc5)cc4)cn3)oc2-c2ccccc2)cc1` displayed an emission maximum of 440 nm.
On the same count and under the same terms, in the case of `CC(C)(C)c1ccc2c(c1)c1cc3c4cc(C(C)(C)C)ccc4c4c5c6ccc(C(C)(C)C)cc6c6cc7c8cc(C(C)(C)C)ccc8c8c2c1c(c34)c(c78)c65` it was 679.9 nm.
